The source of these data is US8309546B2, “Morpholinopurine derivatives” (Daiichi Sankyo Company, Limited, priority 2008, dated 2012).

Assay [1] deals with human endometrial cancer cell strain AN3CA. The assay can be described thus: Cell growth inhibition test (MTT), AN3CA. Type of assay: cell-based. Conditions: AN3-CA, 72 h, 3 days culture, read-out: concentration exhibiting anti-cell effect (GI50). As to the method: (§1) After a cultured cancer cell strain was treated with a test compound for a predetermined period, a cell growth inhibition test was performed by measuring the living cell count by the 3-(4,5-dimethylthiazol-2-yl)-2,5-diphenyltetrazoliumbromide (MTT) method.
(§2) Human endometrial cancer cell strain AN3CA, human ovary cancer cell strain IGROV1, and human colon cancer cell strain HT29 were seeded in a 96-well plate at 5000, 1000, and 5000 cells, respectively, per well. On the following day of seeding, a test compound having a predetermined concentration was added and the culture was continued at 37° C. in 5% CO2 for 3 days. On the final day of culture, an MTT reaction solution was added and the resulting mixture was reacted for 4 hours to form formazan by dehydrogenases contained in living cells. Subsequently, the culture broth was removed, DMSO was added to solubilize formazan, and the amount of produced formazan was determined by measuring absorbance at 540 nm using a microplate reader.
(§3) Since correlations of the amount of produced formazan and the living cell count had been confirmed, the cell growth rate was calculated by the following formula. Cell growth rate (T/C %) after addition of test compound=100×[(B−C)/(A−C)] A: Absorbance of well not containing test compound (final culture day) B: Absorbance of well containing test compound (final culture day) C: Absorbance of well immediately before addition of test compound (following day of cell seeding)
(§4) Furthermore, the cell growth rate at each concentration of serially diluted test compound solutions was obtained, and the concentration of the test compound resulting in a 50% growth rate was obtained as the GI50 value from two concentrations including 50% therebetween and the growth rates were selected.

Assay [2] deals with human colon cancer cell strain HT29. In words: Cell growth inhibition test (MTT), HT29. Type of assay: cell-based. Conditions: HT-29, 72 h, HT29, 3 days culture, read-out: concentration exhibiting anti-cell effect (GI50). As to the method:
as §1, §2, §3, §4

The subject of assay [3] is human ovary cancer cell strain IGROV1. In words: Cell growth inhibition test (MTT), IGROV1. Type of assay: cell-based. The settings on record: IGROV-1, 72 h, IGROV1, 3 days culture, read-out: concentration exhibiting anti-cell effect (GI50). Here is the method:
as §1, §2, §3, §4

Assay [4] concerns the target T1, human mTOR (His-tagged mTOR (1362C)) (Homo sapiens, UniProt P42345).
T1 construct: the 1362 to 2549 amino acid portion on the C terminus side of human mTOR; His tag (N); made in house
The assay can be described thus: mTOR kinase activity inhibition assay. It is filed as biochemical. Conditions: HTRF, read-out: IC50 against mTOR. Here is the method:
The mTOR kinase activity was determined in the presence and absence of a test compound. A substrate peptide is phosphorylated by mTOR kinase activity. A complex of streptavidin-XL665 and anti-phosphorylated S6K (Thr389) antibody-anti-mouse IgG-cryptate binds to this phosphorylated peptide. At this time, irradiation of excitation light induces transfer of fluorescence resonance energy from the excited cryptate to XL665, emitting fluorescence at 665 nm. Utilizing this principle, mTOR kinase activity was detected. When the mTOR inhibitor is present, phosphorylation of a substrate peptide is inhibited, and the biding of the above-mentioned complex to the substrate peptide is inhibited.
A His tag was introduced into the N terminus end of the 1362 to 2549 amino acid portion on the C terminus side of human mTOR, and a cell line was prepared, so that His-tagged mTOR should be constantly expressed in a HEK293 cell. A cell lysate was prepared from this HEK293 cell which constantly expressed His-tagged mTOR (1362C), and a crude product of His-tagged mTOR (1362C) was obtained by a usual method utilizing His tag.
Subsequently, an mTOR enzyme solution was prepared which contained the above-mentioned His-tagged mTOR (1362C) enzyme and 8 μg/ml biotinylated peptide (Biotin-Ahx-[…]-amide [Sigma]), as well as 50 mM HEPES (pH 7.5), 20 mM MnCl2, 1 mg/ml BSA, a suitable amount of protease inhibitor cocktail (Complete EDTA free, Roche Ltd.), 100 ng/ml calyculin A, and 4 μg/ml cantharidin as other components.
The test compound was dissolved in dimethyl sulfoxide (DMSO) and serially diluted with 20 μm ATP solution (50 mM HEPES (pH 7.5), 20 μM ATP) to obtain concentrations required for the assay. 5 μl of this compound solution was added to each well of a 384-well small volume white plate manufactured by Greiner Bio-One Co., Ltd.
5 μl of the mTOR enzyme solution was added to the above-mentioned well containing the test compound and the resulting mixture was left standing for 3 hours room temperature to proceed an enzymatic reaction.
The same procedure was performed using a solution obtained by dissolving DMSO in 20 μM ATP solution as a positive control and a solution obtained by dissolving DMSO in 50 mM HEPES buffer (pH 7.5) as a negative control.
After the enzymatic reaction, 5 μl each of an europium solution (a solution obtained by dissolving anti-mouse IgG-cryptate [SCETI Medical Labo K.K.] and anti-phosphorylation S6K [Thr389] antibody [Cell Signaling Technology Inc.] in 50 mM HEPES [pH 7.5], 100 mM EDTA, and 1.5 mg/ml BSA) and an XL665 solution (a solution obtained by dissolving Streptavidin-XL 665 [SCETI Medical Labo K.K.] in 50 mM HEPES [pH 7.5], 100 mM EDTA, 0.8 M KF, and 1.5 mg/ml BSA) were added in this order and mixed and the resulting mixture was left standing overnight at 4° C. On the following day, the mixture was returned to room temperature and then irradiated with 337-nm excitation light and fluorescence at 620 and 665 nm was measured with RUBYstar (BMG LABTECH JAPAN Ltd.).
mTOR inhibitory activity (%) was calculated using the ratio calculated from the measured values as an indicator of enzyme activity. Here, the ratio was calculated by the following formula (1). Ratio=10,000×fluorescence at 665 nm/fluorescence at 620 nm (1)
mTOR enzyme inhibitory activity (%) was calculated by the following formula (2). mTOR enzyme inhibitory activity (%)=100×[(P−S)/(P−N)] (2) P: Ratio in positive control well N: Ratio in negative control well S: Ratio in well containing the test compound
Furthermore, an optimal curve was created using the concentrations of the serially diluted test compound solutions and mTOR enzyme inhibitory activity (%) at each concentration to obtain the concentration showing 50% inhibition as the IC50 value of mTOR enzyme inhibitory activity.

The target in another assay is PI3Kα (Homo sapiens, UniProt P42336). In words: PI3K kinase activity inhibition assay. Conditions: Kinase-Glo Plus ATP detection, read-out: IC50 against PI3K. It is filed as biochemical. As to the method: PI3Kα kinase activity was determined in the presence and absence of a test compound. The test compound was dissolved in DMSO and diluted serially with an ATP solution (30 μm ATP, 50 mM HEPES, pH 7.4, 50 mM NaCl, 0.05% CHAPS, 10 mM MgCl2, and 5 mM dithiothreitol [DTT]). First, 7 μl each of the serially diluted test compound solutions was added to each well of a black 384-well plate. Subsequently, 7 μl of a phosphatidylinositol 4,5-bisphosphate (PIP2) solution (45 μm PIP2, 50 mM HEPES, pH 7.4, 50 mM NaCl, 0.05% CHAPS, 10 mM MgCl2, and 5 mM DTT) was added to each well of the 384-well plate. Finally, 7 μl of a solution containing PI3Kα (50 nM PI3Kα, 50 mM HEPES, pH 7.4, 50 mM NaCl, 0.05% CHAPS, 10 mM MgCl2, and 5 mM DTT) was added to each well of the 384-well plate to initiate a reaction. The mixture was reacted at room temperature for 2 hours and then 21 μl of the Kinase-Glo Plusreagent (Promega) was, added to each well of the 384-well plate to terminate the reaction. After the termination of the reaction, the solution was left standing for 15 minutes and then luminescence was measured with ARVO (PerkinElmer Co., Ltd.) to detect ATP remaining in the reaction solution.
Sequence of PI3Kα (P42336 whole entry, species assumed): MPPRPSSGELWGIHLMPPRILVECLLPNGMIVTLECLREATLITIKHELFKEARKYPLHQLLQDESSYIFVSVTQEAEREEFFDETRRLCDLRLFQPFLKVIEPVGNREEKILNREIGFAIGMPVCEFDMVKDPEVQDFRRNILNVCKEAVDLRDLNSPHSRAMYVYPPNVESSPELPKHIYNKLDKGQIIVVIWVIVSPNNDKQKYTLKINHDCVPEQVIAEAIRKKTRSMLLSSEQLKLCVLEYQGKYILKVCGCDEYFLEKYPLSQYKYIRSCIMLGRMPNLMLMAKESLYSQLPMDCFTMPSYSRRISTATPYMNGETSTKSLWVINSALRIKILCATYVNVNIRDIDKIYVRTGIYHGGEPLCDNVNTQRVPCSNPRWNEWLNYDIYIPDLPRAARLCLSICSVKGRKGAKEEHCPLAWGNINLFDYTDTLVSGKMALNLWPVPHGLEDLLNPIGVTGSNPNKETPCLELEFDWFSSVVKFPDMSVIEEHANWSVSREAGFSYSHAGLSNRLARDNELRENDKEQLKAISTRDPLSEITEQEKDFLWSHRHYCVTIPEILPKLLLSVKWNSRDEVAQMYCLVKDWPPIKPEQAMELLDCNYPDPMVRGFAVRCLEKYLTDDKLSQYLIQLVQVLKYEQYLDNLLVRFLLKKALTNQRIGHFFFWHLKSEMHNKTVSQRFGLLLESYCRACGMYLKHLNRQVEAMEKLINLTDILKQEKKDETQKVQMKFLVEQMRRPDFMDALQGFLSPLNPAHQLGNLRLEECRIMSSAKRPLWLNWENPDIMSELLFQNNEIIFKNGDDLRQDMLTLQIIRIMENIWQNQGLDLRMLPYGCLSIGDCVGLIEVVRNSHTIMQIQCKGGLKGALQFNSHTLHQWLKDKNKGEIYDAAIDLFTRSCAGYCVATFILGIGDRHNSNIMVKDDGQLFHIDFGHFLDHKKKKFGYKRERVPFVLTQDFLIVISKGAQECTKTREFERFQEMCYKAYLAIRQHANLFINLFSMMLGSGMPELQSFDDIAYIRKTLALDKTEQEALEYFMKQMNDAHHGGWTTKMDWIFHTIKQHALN
Sequence of PI3Kα (P27986 whole entry partner, species assumed): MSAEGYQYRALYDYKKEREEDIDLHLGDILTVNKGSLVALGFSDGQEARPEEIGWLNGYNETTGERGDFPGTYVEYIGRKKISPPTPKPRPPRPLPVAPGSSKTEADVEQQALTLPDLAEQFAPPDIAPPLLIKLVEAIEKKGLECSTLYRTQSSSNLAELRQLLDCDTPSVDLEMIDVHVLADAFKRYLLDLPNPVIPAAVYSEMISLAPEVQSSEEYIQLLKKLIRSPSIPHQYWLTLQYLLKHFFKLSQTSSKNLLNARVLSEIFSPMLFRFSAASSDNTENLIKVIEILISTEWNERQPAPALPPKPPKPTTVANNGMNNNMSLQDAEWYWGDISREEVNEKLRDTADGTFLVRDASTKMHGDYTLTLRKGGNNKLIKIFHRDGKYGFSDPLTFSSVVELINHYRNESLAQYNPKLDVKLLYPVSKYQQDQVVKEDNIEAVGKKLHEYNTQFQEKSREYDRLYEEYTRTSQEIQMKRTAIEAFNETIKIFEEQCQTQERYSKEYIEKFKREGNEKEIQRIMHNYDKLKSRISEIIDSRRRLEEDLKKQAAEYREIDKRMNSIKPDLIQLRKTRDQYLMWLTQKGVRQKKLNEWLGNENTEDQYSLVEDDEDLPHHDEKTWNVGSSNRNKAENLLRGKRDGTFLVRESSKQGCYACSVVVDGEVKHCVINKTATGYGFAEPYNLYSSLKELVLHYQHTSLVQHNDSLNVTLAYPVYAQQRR
The amount of ATP consumed in the reaction was obtained for each well and used as an indicator of PI3Kαkinase activity. The PI3Kα kinase activity in wells not containing the test compound was calculated by the following formula (1). Furthermore, the PI3Kα kinase activity in wells containing the test compound was calculated by the following formula (2). The PI3Kα inhibitory activity (%) of the test compound was calculated by the following formula (3). PI3Kα kinase activity in wells not containing the test compound=B−C (1) PI3Kα kinase activity in wells containing the test compound=B−P (2) PI3Kα inhibitory activity (%) of test compound=100−100×[(B−P)/(B−C)] (3) B: Measured value in wells not containing PI3Kα or the test compound C: Measured value in wells containing PI3Kα and not containing the test compound P: Measured value in wells containing PI3Kα and the test compound
Furthermore, an optimal curve was calculated with Graph Pad Prism 4 using concentrations of the serially diluted test compound solutions and PI3Kα inhibitory activity (%) at each concentration to obtain the concentration showing 50% inhibition as the IC50 value of PI3Kα inhibitory activity.
On the technique in general: In Kinase-Glo more light means more ATP remaining.

T1 sequence (P42345 1362-2549): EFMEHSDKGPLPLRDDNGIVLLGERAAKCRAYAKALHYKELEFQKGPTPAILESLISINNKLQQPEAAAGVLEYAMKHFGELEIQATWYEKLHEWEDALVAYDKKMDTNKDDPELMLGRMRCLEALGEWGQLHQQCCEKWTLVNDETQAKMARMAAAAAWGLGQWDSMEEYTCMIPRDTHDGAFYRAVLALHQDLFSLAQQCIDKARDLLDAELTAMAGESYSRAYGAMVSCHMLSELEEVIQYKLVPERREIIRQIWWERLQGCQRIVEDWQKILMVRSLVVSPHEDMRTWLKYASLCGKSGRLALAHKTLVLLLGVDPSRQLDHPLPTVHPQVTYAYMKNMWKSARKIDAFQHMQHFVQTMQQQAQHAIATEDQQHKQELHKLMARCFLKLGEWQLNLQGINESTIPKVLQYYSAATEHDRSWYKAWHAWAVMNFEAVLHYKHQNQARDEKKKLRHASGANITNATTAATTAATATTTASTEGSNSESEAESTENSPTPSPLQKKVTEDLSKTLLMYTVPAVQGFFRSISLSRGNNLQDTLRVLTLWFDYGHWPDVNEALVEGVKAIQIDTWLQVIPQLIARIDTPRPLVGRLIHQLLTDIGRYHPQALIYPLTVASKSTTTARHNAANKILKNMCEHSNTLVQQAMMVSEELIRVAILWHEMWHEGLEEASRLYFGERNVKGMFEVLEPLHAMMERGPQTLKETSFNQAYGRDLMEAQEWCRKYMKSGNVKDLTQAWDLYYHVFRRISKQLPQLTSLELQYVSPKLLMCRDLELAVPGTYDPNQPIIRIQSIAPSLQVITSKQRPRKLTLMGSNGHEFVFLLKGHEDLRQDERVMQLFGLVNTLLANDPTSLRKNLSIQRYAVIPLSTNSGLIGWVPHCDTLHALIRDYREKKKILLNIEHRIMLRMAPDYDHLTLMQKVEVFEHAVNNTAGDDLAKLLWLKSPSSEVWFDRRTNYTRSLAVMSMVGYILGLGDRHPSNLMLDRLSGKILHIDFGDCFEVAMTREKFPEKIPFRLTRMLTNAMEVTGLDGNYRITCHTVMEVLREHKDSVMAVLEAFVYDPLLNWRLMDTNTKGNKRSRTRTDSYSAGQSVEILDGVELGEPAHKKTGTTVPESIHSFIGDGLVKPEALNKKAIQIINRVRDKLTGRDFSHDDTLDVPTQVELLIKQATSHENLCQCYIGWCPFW

For the compound `C[C@@H]1CN(c2nc3c(N4CCOCC4)nc(-c4cnc(N)nc4)nc3n2CC(F)(F)F)C[C@H](C)N1C(=O)CO` [Example 120], the GI50 in assay [1], in assay [2] and in assay [3] was at most 5000 nM each time. Besides, the IC50 (in assay [4]; on PI3Kα) was below 10 nM each time.

`CNc1ncc(-c2nc(N3CCOCC3)c3nc(N4C[C@@H](C)N[C@@H](C)C4)n(CC4CCOC4)c3n2)cn1` (stereo partly drawn) [Example 18, 5-[8-(cis-3,5-Dimethylpiperazin-1-yl)-6-morpholin-4-yl-9-(tetrahydrofuran-3-ylmethyl)-9H-purin-2-yl]-N-methylpyrimidin-2-amine]: the GI50 in assay [1], in assay [2] and in assay [3] was at most 5000 nM in each case. Further, the values for the IC50 (in assay [4]; on PI3Kα) were 100 to 500 nM and 50 to 100 nM, respectively.

Turning to `Nc1ncc(-c2nc(N3CCOCC3)c3nc(N4CCOCC4)n(CC4CCOC4)c3n2)cn1` (stereo not shown) [Example 23, 5-[6,8-Dimorpholin-4-yl-9-(tetrahydrofuran-3-ylmethyl)-9H-purin-2-yl]pyrimidin-2-amine], the GI50 in assay [1], in assay [2] and in assay [3] was at most 5000 nM in each case. In addition, the IC50 (as a rule, the concentration needed to halve the response being measured) in assay [4] lay within 30 to 100 nM; at PI3Kα, 20 to 50 nM.

`C[C@@H]1CN(c2nc3c(N4CCOCC4)nc(-c4cnc(N)nc4)nc3n2CC(F)(F)F)CCN1` [Example 59, 5-{8-[(3R)-3-Methylpiperazin-1-yl]-6-morpholin-4-yl-9-(2,2,2-trifluoroethyl)-9H-purin-2-yl}pyrimidin-2-amine]: the GI50 in assay [1], in assay [2] and in assay [3] was at most 5000 nM each time. The values for the IC50 (in assay [4]; at PI3Kα) were 10 to 30 nM and below 10 nM, respectively.

For `Nc1ncc(-c2nc(N3CCOCC3)c3nc(N4CCN(C(=O)Cn5ccnc5)CC4)n(CC4CC4)c3n2)cn1` [Example 56, 5-{9-(Cyclopropylmethyl)-8-[4-(1H-imidazol-1-ylacetyl)piperazin-1-yl]-6-morpholin-4-yl-9H-purin-2-yl}pyrimidin-2-amine], the GI50 in assay [1], in assay [2] and in assay [3] was at most 5000 nM in each case. Further, the values for the IC50 (in assay [4]; on PI3Kα) were 10 to 30 nM and below 10 nM, respectively.

Turning to `CS(=O)(=O)N1CCN(c2nc3c(N4CCOCC4)nc(-c4cnc(N)nc4C(F)(F)F)nc3n2CC2CC2)CC1` [Example 7, 5-{9-(Cyclopropylmethyl)-8-[4-(methylsulfonyl)piperazin-1-yl]-6-morpholin-4-yl-9H-purin-2-yl}-4-(trifluoromethyl)pyrimidin-2-amine], the GI50 in assay [1], in assay [2] and in assay [3] was at most 5000 nM throughout. Besides, the IC50 in assay [4] is 100 to 500 nM; at PI3Kα, below 10 nM.

With `CN1CCN(c2nc3c(N4CCOCC4)nc(-c4cnc(N)nc4)nc3n2CC(F)(F)F)CC1` [Example 13, 5-[8-(4-Methylpiperazin-1-yl)-6-morpholin-4-yl-9-(2,2,2-trifluoroethyl)-9H-purin-2-yl]pyrimidin-2-amine], the GI50 in assay [1], in assay [2] and in assay [3] was at most 5000 nM in each case. Also, the IC50 in assay [4] is 10 to 30 nM; at PI3Kα, below 10 nM.

Turning to `Cc1nc(N(C)C)ncc1-c1nc(N2CCOCC2)c2nc(N3CCN(S(C)(=O)=O)CC3)n(CC3CC3)c2n1` [Example 44, 5-{9-(Cyclopropylmethyl)-8-[4-(methylsulfonyl)piperazin-1-yl]-6-morpholin-4-yl-9H-purin-2-yl}-N,N,4-trimethylpyrimidin-2-amine], the IC50 in assay [4] was at least 500 nM.

`Cc1nc(N)ncc1-c1nc(N2CCOCC2)c2nc(N3CCC(C(N)=O)CC3)n(CC3CC3)c2n1` [Example 47, 1-[2-(2-Amino-4-methylpyrimidin-5-yl)-9-(cyclopropylmethyl)-6-morpholin-4-yl-9H-purin-8-yl]piperidine-4-carboxamide methanesulfonate]: the IC50 on PI3Kα fell in the range of 10 to 20 nM.
